From patent US12594282B2, “Use of small molecule compounds in the treatment of diseases mediated by lung epithelial cell injury and/or vascular endothelial cell injury” (Guangzhou Cellprotek Pharmaceutical Co., Ltd., priority 2020, dated 2026)
Peptide text beside a SMILES is read from it. * marks the point of attachment. Cbz = O=C(OCc1ccccc1)*

What was measured:
[1] = test system: NR4A3; experiment: NR4A3 protein expression under OGD-R, HUVEC (Western blot, immunofluorescence); type: cell-based, human; conditions: for degradation of NR4A3 during restoration injury: given together with CHX 100 μM, MG132 10, 30, 100 nM, CQ 10, 30, 100 μM
Method: (§1) HUVEC cells were cultured in modified DMEM medium containing 10% fetal bovine serum. When the cells reached about 80% confluence, the cells were digested with 0.25% trypsin, and then pipetted evenly with modified DMEM containing 10% […]. The cell concentration was adjusted to 1×10^5 cells/mL, and the cells were seeded at 400 uL/well in a 24-well plate, and the experiment was carried out when the cells grew to about 70% confluence. RAOEC cells were cultured in high-glucose DMEM medium containing 10% fetal bovine serum, and the seeding conditions were the same as those of HUVEC. During the OGD-R injury treatment, the hypoxia workstation was set to have an oxygen concentration of 1% (1% O2, 5% CO2, 94% N2), a temperature of 37° C., and a humidity of 85%. A sugar-free DMEM medium was placed in the hypoxia workstation for pre-hypoxia for 3 hours. The medium in the culture plate was aspirated, and the plate was washed twice with preheated sugar-free DMEM medium, and 100 uL of sugar-free DMEM medium was added to each well. The culture plate was placed in the hypoxia workstation, and 300 uL of pre-hypoxic sugar-free DMEM medium was added to each well, and then the culture plate was placed in the hypoxia workstation for additional hypoxia for 4 hours. Restoration was then performed. The culture plate was taken out, and the sugar-free DMEM medium was replaced with 400 uL of normal medium containing 10% fetal bovine serum, and then the plate was placed in a 37° C. 5% CO2 cell incubator for culturing for 24 hours or a specified time period. For the cells in the normal group, it was only replaced with 400 uL of new normal medium containing 10% fetal bovine serum. […]
(§2) The cells were washed twice with pre-cooled PBS, then scraped off with a cell scraper and transferred to a 1.5 mL centrifuge tube, and centrifugation was performed at 4° C. and 1000 g for 5 minutes. […] Each protein sample was then quantified using the BCA protein quantification kit. After protein quantification, protein lysis buffer was used to adjust the protein concentration of each sample to be consistent with the protein sample with the lowest concentration, and then each protein sample was sufficiently mixed with 5× protein loading buffer at a ratio of 4:1. […]

[2] = test system: NR4A3; experiment: NR4A3 protein expression under OGD-R, RAOEC (Western blot, immunofluorescence); type: cell-based, rat; conditions: for degradation of NR4A3 during restoration injury: given together with CHX 100 μM, MG132 10, 30, 100 nM, CQ 10, 30, 100 μM
Method: as §1, §2

[3] = test system: NR4A3; experiment: NR4A3 ubiquitination after OGD-R in vascular endothelial cells (immunoprecipitation with anti-ubiquitin antibodies); type: cell-based; conditions: YC-6 10 μM; MG132 100 nM; given at restoration
Method: as §1
The cells were washed twice with pre-cooled PBS, then scraped off with a cell scraper and transferred to a 1.5 mL centrifuge tube, and centrifugation was performed at 4° C. and 1000 g for 5 minutes. […] Each protein sample was then quantified using the BCA protein quantification kit. After protein quantification, IP lysis buffer was used to adjust the protein concentration of each sample to 1 mg/mL. […]

[4] = test system: PFKFB3; conditions: mouse model of LPS-induced pulmonary fibrosis; cited from earlier work
[5] = test system: human alveolar epithelial A549 cells; conditions: A549 cells in vitro; cited from earlier work
[6] = 100 μM given during restoration after OGD

With `CC(C)C[C@@H](C=O)NC(=O)[C@H](CC(C)C)NC(=O)[C@H](CC(C)C)NC(=O)OCc1ccccc1` [MG132] (Cbz-Leu-Leu-Leu-aldehyde) the “degradation of NR4A3 during restoration injury” value (from here on “degradation”) [1] was “could inhibit the degradation of NR4A3”, the “degradation” value [2] was “could inhibit the degradation of NR4A3” and the “ubiquitination modification of NR4A3 induced by restoration” value [3] was “increase of ubiquitinated NR4A3”.
In the case of `O=C(/C=C/c1cccnc1)c1ccncc1` [3PO], the “upregulation of PFKFB3 expression and enhanced aerobic glycolysis” value [4] is listed as “could reverse the significant upregulation of PFKFB3 expression and enhanced aerobic glycolysis” and the “LPS-induced apoptosis, inflammatory cytokine production, enhanced glycolytic flux and increased ROS” value [5] is listed as “reversed”.
With `CCN(CC)CCCC(C)Nc1ccnc2cc(Cl)ccc12` (stereo not drawn) [CQ, Chloroquine] the “degradation” value [1] was “did not significantly inhibit the degradation of NR4A3” and the “degradation” value [2] was “did not significantly inhibit the degradation of NR4A3”.
For `C[C@@H]1C[C@@H]([C@H](O)CC2CC(=O)NC(=O)C2)C(=O)[C@@H](C)C1` [CHX, Cycloheximide], the “NR4A3 protein level during restoration” value [1, 6] was “almost complete depletion of NR4A3 protein” and the “NR4A3 protein level during restoration” value [2, 6] was “almost complete depletion of NR4A3 protein”.
